Earlier results, collected in patent US20260335285A1, “A TOPICAL COMPOSITION COMPRISING CHLORINE E6 AND ZINC L-PYROGLUTAMATE” (ZXA GROUP LTD., priority 2022, published 2026).

Conditions: known in the art; topical

Compound: C=Cc1c(C)c2cc3nc(c(CC(=O)O)c4[nH]c(cc5nc(cc1[nH]2)C(C)=C5CC)c(C)c4C(=O)O)[C@@H](CCC(=O)O)[C@@H]3C [chlorine e6, (17S,18S)-18-(2-carboxyethyl)-20-(carboxymethyl)-12-ethenyl-7-ethyl-3,8,13,17-tetramethyl-17,18,22,23-tetrahydroporphyrin-2-carboxylic acid]
- delivery into the skin: inefficient delivery into the skin
